Source: patent US8633204B2 (Pfizer Inc., priority 2006, dated 2014)

Legend:
PI3-Kα = PI3-Kα (Mus musculus (Mouse), UniProt P42337); assay: PI3-Kα Biochemical Assay (fluorescence polarization kinase assay)
Description: Compounds of the present invention were evaluated for potency against PI3-Kα using an in vitro kinase assay. PI3-Kα activity is measured in vitro by determining the level of phosphorylation of the substrate PI(4,5)P2. The formation of product PI(3,4,5)P3 is monitored by binding to the Grip1 PH domain in a ligand displacement fluorescence polarization (FP) assay, in which the TAMRA-labeled PI(3,4,5)P3 complexed with Grip1 PH domain is displaced by PI(3,4,5)P3 formed in the PI3-Kα reaction resulting in a decrease in FP signal. Mouse PI3-Kα P110 and P85 subunits were co-expressed in insect cells and co-purified to homogeneity. PI(4,5)P2 were obtained from Cayman. TAMRA-labeled PI(3,4,5)P3 were from Echelon, Grip1 PH domain from Dundee and other reagents were from Sigma.
All assays were performed in a Corning solid black 96-well half area plate using LJL Analyst (Molecular Devices) at room temperature. The assay buffer contained 50 mM HEPES, pH 7.4, 150 mM NaCl, 5 mM DTT, and 0.05% CHAPS. Dry powder PI(4,5)P2 was dissolved in 50 mM TRIS, pH 8 to make 1 mM stock solution. The PI(4,5)P2 stock solution was then diluted in the assay buffer to 60 μM, and sonicated for 30 sec before use. To the assay plate, the following reagents were added in sequence: 10 μL of 60 μM PI(4,5)P2, 5 μL of 4 nM PI3-Kα, 2 μL of compound in 25% DMSO, 3 μL of mixture containing 200 μM ATP and 33 mM MgCl2. The final volume for the reaction was 20 μL. The reaction mixture was incubated at room temperature for 35 min. The reaction was then stopped by 20 μL of 20 mM EDTA. […] The FP signal was allowed to develop for 40 min before reading on a LJL analyst at excitation 535 nm and emission 580 nm.
The percentage of inhibition was calculated based on the following equation % inhibition=[1−(FPcompound−FPmax)/(FPmin−FPmax)]×100, where FPcompound is the FP reading at a given compound concentration, FPmin is the FP signal of the PI3-Kα reaction in the absence of a compound, and FPmax is the background FP signal in the absence of PI3-Kα and a compound. The IC50 was determined by fitting the FP signal vs. compound concentration to a sigmoidal dose response equation using GraphPad Prism curve fitting program.

[1] = test system: PI3-K in BT20 cells (phosphorylation of AKT at serine 473); assay: PI3-Kα Cellular Assay (AKT Ser473 phosphorylation ELISA in BT20 cells); format: cell-based, human; conditions: Homo sapiens, BT-20, pAKT Ser473 ELISA, 1 hour incubation
Description: Compounds of the present invention were evaluated for potency against PI3-K using a cellular assay as follows.
Healthy growing human breast cancer cells BT20 (PI3K mutated) are used for the assay. BT20 cells are grown in 10% FBS+GLN (1:100)+PS (1:100)+1 mM Sodium Pyruvate+0.1 mM Sodium Bicarbonate+Non-Essential Amino Acids Solution (1:100) MEM medium (MEM+all). […] The cells are re-suspended in 10% FBS MEM all and are centrifuged down at 1400 rpm for 5 minutes. The cells are re-suspended in 0.5% FBS MEM all and are counted on a cell counter. The cells are seeded at 25,000 cells/well in volume of 100 μL/well in 0.5% FBS MEM all in a 96 well flat-bottom plate. The negative control wells receive only 100 μL of 0.5% FBS MEM all medium without cells. The plate is incubated overnight in a cell culture incubator with 5% CO2 at 37° C.
On day 2, testing compounds are prepared in 0.5% FBS MEM all medium and serially diluted at 1:3 for 11 test concentrations. Each concentration of the compounds is tested in duplicate. The compound solutions are added at 25 μL/well to the corresponded wells in cell plate, and 25 μL/well of the vehicle (0.5% DMSO in 0.5% FBS MEM all) is added to the negative control wells (no cells) and the positive control wells (cells without compounds). The plate is incubated for 1 hour in a cell culture incubator with 5% CO2 at 37° C. After 1 hour of incubation, the medium is removed, 100 μL/well of cell lysis buffer is added into the cell plate, and shake for 15 minutes at room temperature. […] After 1 hour, empty the contents of the wells, wash the plate 4 times with the wash buffer, and add 100 μL of TMB substrate solution (catalog #T0440, Sigma) into each well, and incubate with gentle shaking at room temperature for […]. After 15 minutes of color development, add 100 μL of stop solution (1N hydrochloric acid) to each well, and read the plate at 450 nm on ELISA plate reader.

Chain of PI3-Kα (P42337 whole entry, the tested form may be a part): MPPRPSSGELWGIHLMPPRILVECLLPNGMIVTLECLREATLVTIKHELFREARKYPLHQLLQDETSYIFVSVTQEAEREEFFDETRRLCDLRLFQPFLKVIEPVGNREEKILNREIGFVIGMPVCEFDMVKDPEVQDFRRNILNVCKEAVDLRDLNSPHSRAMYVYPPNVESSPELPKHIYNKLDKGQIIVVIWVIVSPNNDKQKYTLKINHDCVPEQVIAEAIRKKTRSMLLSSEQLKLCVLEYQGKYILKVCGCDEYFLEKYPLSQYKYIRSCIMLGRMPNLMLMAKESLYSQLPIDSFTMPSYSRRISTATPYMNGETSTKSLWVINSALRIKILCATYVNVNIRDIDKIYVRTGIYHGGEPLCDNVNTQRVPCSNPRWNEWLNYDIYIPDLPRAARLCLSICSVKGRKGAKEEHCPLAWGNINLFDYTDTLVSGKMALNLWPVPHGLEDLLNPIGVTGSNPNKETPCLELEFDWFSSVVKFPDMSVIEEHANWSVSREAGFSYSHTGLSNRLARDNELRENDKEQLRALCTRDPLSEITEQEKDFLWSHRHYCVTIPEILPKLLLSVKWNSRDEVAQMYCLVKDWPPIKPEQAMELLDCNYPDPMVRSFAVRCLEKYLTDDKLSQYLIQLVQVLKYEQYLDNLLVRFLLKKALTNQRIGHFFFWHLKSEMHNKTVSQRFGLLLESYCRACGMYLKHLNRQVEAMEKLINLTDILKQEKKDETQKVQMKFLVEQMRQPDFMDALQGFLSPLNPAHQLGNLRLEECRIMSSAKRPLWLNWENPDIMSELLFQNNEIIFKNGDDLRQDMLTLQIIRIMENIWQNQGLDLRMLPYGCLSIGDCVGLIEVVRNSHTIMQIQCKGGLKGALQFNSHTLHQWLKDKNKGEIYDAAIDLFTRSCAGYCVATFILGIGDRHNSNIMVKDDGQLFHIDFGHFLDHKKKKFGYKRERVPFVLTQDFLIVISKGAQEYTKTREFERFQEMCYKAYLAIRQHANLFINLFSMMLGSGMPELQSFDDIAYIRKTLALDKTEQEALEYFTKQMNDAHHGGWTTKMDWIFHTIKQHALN
Chain of PI3-Kα (P26450 whole entry partner, the tested form may be a part): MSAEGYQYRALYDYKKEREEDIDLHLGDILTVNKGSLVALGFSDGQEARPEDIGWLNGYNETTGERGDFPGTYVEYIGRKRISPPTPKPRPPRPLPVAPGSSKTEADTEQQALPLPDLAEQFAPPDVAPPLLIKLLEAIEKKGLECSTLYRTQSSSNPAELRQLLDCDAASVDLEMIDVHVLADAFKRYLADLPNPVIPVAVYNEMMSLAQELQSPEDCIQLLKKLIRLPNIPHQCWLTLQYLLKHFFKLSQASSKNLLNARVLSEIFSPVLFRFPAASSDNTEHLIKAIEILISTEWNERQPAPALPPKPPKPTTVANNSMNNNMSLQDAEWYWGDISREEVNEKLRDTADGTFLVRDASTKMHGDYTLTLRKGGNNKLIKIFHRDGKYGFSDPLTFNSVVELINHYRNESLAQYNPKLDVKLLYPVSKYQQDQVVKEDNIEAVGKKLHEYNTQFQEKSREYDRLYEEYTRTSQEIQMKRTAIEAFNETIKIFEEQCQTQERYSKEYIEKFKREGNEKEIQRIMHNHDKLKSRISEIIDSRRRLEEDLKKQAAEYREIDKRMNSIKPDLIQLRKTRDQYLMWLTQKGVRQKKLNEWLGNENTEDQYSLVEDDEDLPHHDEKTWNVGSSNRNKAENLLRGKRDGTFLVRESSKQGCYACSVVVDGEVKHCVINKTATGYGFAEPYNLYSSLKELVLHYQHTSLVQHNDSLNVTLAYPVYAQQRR

| IC50 (PI3-Kα) [nM] | IC50 [1] [nM] | Structure (SMILES) |
| --- | --- | --- |
| 56 | – | COc1ccc(-c2cc3c(C)nc(N)nc3n(C3CC3)c2=O)cn1 [Compound 212, 2-amino-8-cyclopropyl-6-(6-methoxypyridin-3-yl)-4-methylpyrido[2,3-d]pyrimidin-7(8H)-one] |
| 78 | – | Cc1nc(N)nc2c1cc(-c1cn[nH]c1)c(=O)n2C1CC1 [Compound 211, 2-amino-8-cyclopropyl-4-methyl-6-(1H-pyrazol-4-yl)pyrido[2,3-d]pyrimidin-7(8H)-one] |
| 1.43 | – | COc1ncc(-c2cc3c(C)nc(N)nc3n(C3CCOCC3)c2=O)cc1F [Compound 265, 2-amino-6-(5-fluoro-6-methoxypyridin-3-yl)-4-methyl-8-(tetrahydro-2H-pyran-4-yl)pyrido[2,3-d]pyrimidin-7(8H)-one] |
| – | 3.1 | COc1ncc(-c2cc3c(C)nc(N)nc3n([C@H]3CC[C@H](O)CC3)c2=O)cc1F [Compound 191, 2-amino-6-[5-fluoro-6-methoxypyridin-3-yl)-8-(trans-4-hydroxycyclohexyl)-4-methylpyrido[2,3-d]pyrimidin-7(8H)-one] |
| – | 3.49 | Cc1nc(N)nc2c1cc(-c1cn[nH]c1)c(=O)n2C1CCCC1 [Compound 101, 2-amino-8-cyclopentyl-6-(1H-pyrazol-4-yl)-4-methylpyrido[2,3-d]pyrimidin-7(8H)-one] |
| – | 82.9 | COc1ncc(-c2cc3c(C)nc(N)nc3n([C@H]3CC[C@@H](OCC(N)=O)CC3)c2=O)cn1 [Compound 307, 2-({cis-4-(2-amino-6-(2-methoxypyrimidin-5-yl)-4-methyl-7-oxopyrido[2,3-d]pyrimidin-8(7H)-yl]cyclohexyl}oxy)acetamide] |
| – | 19 | COc1ccc(-c2cc3c(C)nc(N)nc3n([C@H]3CC[C@@H](O)CC3)c2=O)cn1 [Compound 174, 2-amino-8-(cis-4-hydroxycyclohexyl)-6-(6-methoxypyridin-3-yl)-4-methylpyrido[2,3-d]pyrimidin-7(8H)-one] |
| – | 934 | Cc1nc(N)nc2c1cc(-c1cnn(C)c1)c(=O)n2[C@@H]1CC[C@H](O)C1 [Compound 161, 2-amino-8-[(1R,3S)-3-hydroxycyclopentyl]-4-methyl-6-(1-methyl-1H-pyrazol-4-yl)pyrido[2,3-d]pyrimidin-7(8H)-one] |
| – | 18 | COc1ccc(-c2cc3c(C)nc(N)nc3n([C@H]3CC[C@@H](OCCO)CC3)c2=O)cn1 [Compound 285, 2-Amino-8-(cis-4-(2-hydroxyethoxy)cyclohexyl)-6-(6-methoxypyridin-3-yl)-4-methylpyrido[2,3-d]pyrimidin-7(8H)-one] |
| – | 262 | Cc1nc(N)nc2c1cc(-c1cn[nH]c1)c(=O)n2[C@@H]1CC[C@@H](O)C1 [Compound 166, 2-amino-8-[(1R,3R)-3-hydroxycyclopentyl]-4-methyl-6-(1H-pyrazol-4-yl)pyrido[2,3-d]pyrimidin-7(8H)-one] |
| – | 19.3 | COc1ccc(-c2cc3c(C)nc(N)nc3n([C@H]3CC[C@H](OCC(N)=O)CC3)c2=O)cn1 [Compound 309, 2-({trans-4-[2-amino-6-(6-methoxypyridin-3-yl)-4-methyl-7-oxopyrido[2,3-d]pyrimidin-8(7H)-yl]cyclohexyl}oxy)acetamide] |
| – | 29.5 | Cc1nc(N)nc2c1cc(-c1cnc3ccccc3c1)c(=O)n2[C@H]1CC[C@H](OCCO)CC1 [Compound 289, 2-amino-8-(trans-4-(2-hydroxyethoxy)cyclohexyl]-4-methyl-6-quinolin-3-ylpyrido[2,3-d]pyrimidin-7(8H)-one] |
| – | 623 | Cc1nc(N)nc2c1cc(-c1cnn(C)c1)c(=O)n2C1CCCC1 [Compound 235, 2-Amino-8-cyclopentyl-4-methyl-6-(1-methyl-1H-pyrazol-yl)-8H-pyrido[2,3-d]pyrimidin-7-one] |
| – | 7.81 | CNc1nc(C)c2cc(-c3ccc(OC)nc3)c(=O)n([C@H]3CC[C@H](O)CC3)c2n1 [Compound 274, 8-(trans-4-hydroxycyclohexyl)-6-(6-methoxypyridin-3-yl)-4-methyl-2-(methylamino)pyrido[2,3-d]pyrimidin-7(8H)-one] |

More lines, now with the values behind:

| Structure (SMILES) | IC50 (PI3-Kα) [nM] | IC50 [1] [nM] |
| --- | --- | --- |
| Cc1nc(N)nc2c1cc(-c1cn[nH]c1)c(=O)n2N1CCCC1 [Compound 193, 2-Amino-4-methyl-6-(1H-pyrazol-4-yl)-8-(pyrrolidin-1-yl)pyrido[2,3-d]pyrimidin-7(8H)-one] | 28 | – |
| COc1ccc(-c2cc3c(C)nc(N)nc3n(N3CCCC3)c2=O)cn1 [Compound 195, 2-amino-6-(6-methoxypyridin-3-yl)-4-methyl-8-(pyrrolidin-1-yl)pyrido[2,3-d]pyrimidin-7(8H)-one] | 23 | – |
| Cc1nc(N)nc2c1cc(-c1cn[nH]c1)c(=O)n2CC1CCOC1 (stereo not shown) [Compound 219, 2-amino-4-methyl-6-(1H-pyrazol-4-yl)-8-((tetrahydrofuran-3-yl)methyl)pyrido[2,3-d]pyrimidin-7(8H)-one] | – | 94.9 |
| CCNc1nc(C)c2cc(CCC(N)=O)c(=O)n(C3CCCC3)c2n1 [Compound 118, 3-[8-cyclopentyl-2-(ethylamino)-4-methyl-7-oxo-7,8-dihydropyrido[2,3-d]pyrimidin-6-yl]propanamide] | – | 8370 |
| CCNc1nc(C)c2cc(-c3cccc(O)c3)c(=O)n(C3CCCC3)c2n1 [Compound 144, 8-cyclopentyl-2-(ethylamino)-6-(3-hydroxyphenyl)-4-methylpyrido[2,3-d]pyrimidin-7(8H)-one] | – | 3.05 |
| CCn1nccc1NC(=O)c1cc2c(C)nc(N)nc2n(C(C)C)c1=O [Compound 280, 2-amino-N-(1-ethyl-1H-pyrazol-5-yl)-8-isopropyl-4-methyl-7-oxo-7,8-dihydropyrido[2,3-d]pyrimidine-6-carboxamide] | 3.9 | – |
| COc1ccc(-c2cc3c(C)nc(N)nc3n(CC(C)(C)O)c2=O)cn1 [Compound 169, 2-amino-8-(2-hydroxy-2-methylpropyl)-6-(6-methoxypyridin-3-yl)-4-methylpyrido[2,3-d]pyrimidin-7(8H)-one] | – | 340 |
| CCNc1nc(C)c2cc(CCC(=O)Nc3ccccn3)c(=O)n(C3CCCC3)c2n1 [Compound 122, 3-[8-cyclopenlyl-2-(ethylamino)-4-methyl-7-oxo-7,8-dihydropyrido[2,3-d]pyrimidin-6-yl]-N-pyridin-2-ylpropanamide] | – | 10000 |
| CCNc1nc(C)c2cc(-c3ccc(OC)nc3)c(=O)n(C3CCCC3)c2n1 [Compound 139, 8-cyclopentyl-2-(ethylamino)-6-(6-methoxypyridin-3-yl)-4-methylpyrido[2,3-d]pyrimidin-7(8H)-one] | – | 17 |
| CNc1nc(C)c2cc(-c3ccc(OC)nc3)c(=O)n(CCN)c2n1 [Compound 239, 8-(2-Amino-ethyl)-6-(6-methoxy-pyridin-3-yl)-4-methyl-2-methylamino-8H-pyrido[2,3-d]pyrimidin-7-one] | – | 1270 |
| Cc1nc(N)nc2c1cc(Br)c(=O)n2[C@@H]1CC[C@H](O)C1 [Compound 160, 2-amino-6-bromo-8-[(1R,3S)-3-hydroxycyclopentyl]-4-methylpyrido[2,3-d]pyrimidin-7(8H)-one] | – | 1040 |
